Entries after “also recorded” stand apart in the source; their conditions may differ.
Key:
[1] = system: NAD^+ depletion in HL-60 cell lysate; assay: Whole cell assay screen: NAD+ depletion in H2O2-activated HL-60 cell lysate; type: cell-based
Method: To identify a non-toxic, non-DNA intercalating, cell permeable small molecule inhibitor of PARG, a high-throughput screen is devised. Given the severe challenges in isolating enough of the PAR substrate for an in vitro screen directly for PARG inhibition, we develop a primary screen that utilizes cell lysates and, in particular, mammalian cell lysates. In this assay, HL-60 cells are treated with H2O2 to damage their DNA (which activates PARP-1) and then lyse the cells. In individual wells of a 384-well plate, this cell lysate is incubated with 22,000 different small molecules from an in-house compound collection; these compounds are either purchased (from ChemBridge Corp.) or collected from various sources at the University of Illinois. (28) NAD^+ levels are measured using a fluorescent method based on the chemical conversion of NAD^+ to a fluorescent product (29, 30) (FIG. 14A). The amount of NAD^+ consumed in each well is monitored, and any compounds that prevent NAD^+ consumption are classified “hits” in this primary screen.
Library screen: 12.5 μL of Lysing PARP buffer (50 mM Tris, 10 mM MgCl2, pH 8.0, 1% Triton X-100) containing 100 μM NAD^+ is added to each well of a 384-well plate. Library compounds at 10 mM in DMSO are transferred using a 384-well pin transfer device that delivers 0.1 μL. HL-60 cells are spun down at 200 g for 5 min. and resuspended in Lysing PARP buffer to a concentration of 8×10^6 cells/mL. 10 μL of a 30% H2O2 solution is added per mL of cells. 12.5 μL of the activated cell lysate is added to the plates. The plates are incubated for 60 min. at 37° C. The concentration of NAD^+ is then determined using a fluorescent assay^1. 10 μL of a 2 M KOH solution and 10 μL of a 20% acetophenone solution (in ethanol) is added to each well. The plate is then incubated at 4° C. for 10 min. 45 μL of a 88% formic acid solution was added to each well. The plate was then incubated for 5 min. in a 110° C. oven. Once the plate cools, the fluorescent intensity of each well is determined on a Criterion Analyst AD (Molecular Devices) with an excitation of 360 nm and an emission of 445 nm.

[2] = system: primary dopaminergic neurons from the midbrain of embryonic rats; assay: Protection of primary dopaminergic neurons from rotenone (TH/MAP2 immunocytochemistry); type: cell-based, rat; conditions: 100 nM rotenone, 48 h, % TH+ of MAP2+ cells
Method: With in vitro PARG inhibition, cell permeability, a structure-activity-relationship, and protection in cell culture models established, the protective properties of PIP-1 are evaluated in cultures of primary dopaminergic neurons taken from the midbrain of embryonic rats. After isolation, these neurons are treated with 100 nM rotenone and a range of PIP-1 concentrations. Cells are stained with antibodies to MAP2 and tyrosine hydroxylase (TH) to determine the proportion of dopaminergic neurons remaining.
Preparation of Primary Mesencephalic Cultures: Primary Midbrain Cultures are prepared using a modified version of a previously described protocol^2. All of the procedures involving animal handling are reviewed and approved by the Purdue Animal Care and Use Committee. […]
Treatment of primary cultures with rotenone and PIP-1: AraC-treated primary cultures are incubated in fresh media for 72 h. […] After 48 h, the cells are analyzed immunocytochemically as described below.
Immunocytochemistry: Primary cells are fixed in 4% (w/v) paraformaldehyde in PBS for 30 min. […] MAP2- and TH-immunoreactive primary neurons are counted in 10 randomly chosen observation fields for each experimental condition using a Nikon TE2000-U inverted fluorescence microscope at a total magnification of 200×. The data are expressed as the percentage of MAP2-positive neurons that are also TH-positive. […]

| SMILES | Inhibition of NAD+ depletion in the whole cell assay [1] | Protection of dopaminergic neurons from rotenone induced cell death [2] |
| --- | --- | --- |
| CN(C)c1cnn(-c2ccccc2)c(=O)c1N [PIP-1, 4-Amino-5-dimethylamino-2-phenyl-2H-pyridazin-3-one] | inhibit NAD^+ depletion | considerable protection; also recorded: protects dopaminergic neurons from rotenone induced cell death |
| Nc1c(Cl)cnn(-c2ccccc2)c1=O [compound 5, 4-Amino-5-chloro-2-phenyl-2H-pyridazin-3-one] | do not inhibit NAD^+ depletion | no protection; also recorded: does not significantly protect |
